From US6610853B1, “N-(phenylsulfonyl)picolinamide derivatives, process for producing the same, and herbicide” (Kureha Kagaku Kogyo K.K., priority 2000, dated 2003)

Assays:
Test in all cases: Test on herbicidal activity by foliar application
Format in all cases: in vivo
Conditions in all cases: foliar spray, 1 kg/ha, plants at 1-2 leaf stage in pots, evaluated 14 days after spraying
[1] = test system: Sinapis arvensis
Method: (§1) Test on Herbicidal Activity by Foliar Application: Herbicidal solutions of each test compounds, which were prepared by dissolving at predetermined concentrations such a wettable powder of the test compound as that described in the above Formulation Example, were sprayed at dosages of 1 kg/ha over foliar parts of Amaranthus retroflexus, Bidens pilosa, Sinapis arvensis, Stellaria media, Solanum nigrum, Abutilon theophrasti, Convolvulus arvensis, Matricaria chamomilla, Galium aparine, Veronica hederaefolia, and Setaria viridis (each test plant is 1-2 leaf stage) which were grown in pots. 14 days latter after spraying, its herbicidal activity was evaluated in accordance with the below-described system. Herbicidal Activity 1: less than 30% inhibition 2: 30% or more-50% inhibition 3: 50% or more-70% inhibition 4: 70% or more-90% inhibition 5: 90% or more inhibition

[2] = test system: Setaria viridis
Method: as §1

[3] = test system: Stellaria media
Method: as §1

[4] = test system: Matricaria chamomilla
Method: as §1

[5] = test system: Galium aparine
Method: as §1

[6] = test system: Amaranthus retroflexus
Method: as §1

[7] = test system: Solanum nigrum
Method: as §1

[8] = test system: Convolvulus arvensis
Method: as §1

[9] = test system: Bidens pilosa
Method: as §1

[10] = test system: Abutilon theophrasti
Method: as §1

[11] = test system: Veronica hederaefolia
Method: as §1

Row | Compound | Herbicidal activity, Sinapis arvensis [1] | Herbicidal activity, Setaria viridis [2] | Herbicidal activity, Stellaria media [3] | Herbicidal activity, Matricaria chamomilla [4] | Herbicidal activity, Galium aparine [5] | Herbicidal activity, Amaranthus retroflexus [6] | Herbicidal activity, Solanum nigrum [7] | Herbicidal activity, Convolvulus arvensis [8] | Herbicidal activity, Bidens pilosa [9] | Herbicidal activity, Abutilon theophrasti [10] | Herbicidal activity, Veronica hederaefolia [11]
1 | COC(=O)c1ccccc1S(=O)(=O)NC(=O)c1ccc(OC)c(Cl)n1 [Compound I-258, 2-[[[(6-Chloro-5-methoxypyridin-2-yl)carbonyl]-amino]sulfonyl]benzoic Acid Methyl Ester] | 5 (90% or more inhibition) | 5 (90% or more inhibition) | 5 (90% or more inhibition) | 5 (90% or more inhibition) | 5 (90% or more inhibition) | 5 (90% or more inhibition) | 5 (90% or more inhibition) | 5 (90% or more inhibition) | 5 (90% or more inhibition) | 5 (90% or more inhibition) | 4 (70% or more-90% inhibition)
2 | COc1ccc(C(=O)NS(=O)(=O)c2ccccc2S(=O)(=O)N(C)C)nc1[N+](=O)[O-] [Compound I-858, N-[[2-(N,N-Dimethylaminosulfonyl)phenyl]-sulfonyl]-5-methoxy-6-nitro-2-pyridinecarboxamide] | 5 (90% or more inhibition) | 5 (90% or more inhibition) | 5 (90% or more inhibition) | 4 (70% or more-90% inhibition) | 5 (90% or more inhibition) | 5 (90% or more inhibition) | 5 (90% or more inhibition) | 5 (90% or more inhibition) | 5 (90% or more inhibition) | 5 (90% or more inhibition) | 4 (70% or more-90% inhibition)
3 | COc1cc(Cl)nc(C(=O)NS(=O)(=O)c2c(Cl)cccc2Cl)c1 [Compound I-615, 6-Chloro-N-[(2,6-Dichlorophenyl)sulfonyl]-4-methoxypyridine-2-carboxamide] | 5 (90% or more inhibition) | 4 (70% or more-90% inhibition) | 5 (90% or more inhibition) | 5 (90% or more inhibition) | 5 (90% or more inhibition) | 4 (70% or more-90% inhibition) | 5 (90% or more inhibition) | 4 (70% or more-90% inhibition) | 5 (90% or more inhibition) | 5 (90% or more inhibition) | 4 (70% or more-90% inhibition)
4 | COc1ccc(C(=O)NS(=O)(=O)c2ccccc2S(=O)(=O)N(C)C)nc1C [Compound I-859, N-[[2-(N,N-Dimethylaminosulfonyl)phenyl]-sulfonyl]-6-methyl-5-methoxy-2-pyridinecarboxamide] | 5 (90% or more inhibition) | 5 (90% or more inhibition) | 5 (90% or more inhibition) | 5 (90% or more inhibition) | 5 (90% or more inhibition) | 5 (90% or more inhibition) | 5 (90% or more inhibition) | 4 (70% or more-90% inhibition) | 5 (90% or more inhibition) | 5 (90% or more inhibition) | 5 (90% or more inhibition)
